In patent publication US9782379B2, “Use of protectin DX for the stimulation of muscular IL-6 secretion” (Universite Laval, priority 2013, dated 2017):

Key:
C2C12 myotubes = test: IL-6 expression and release and AMPK phosphorylation in cultured C2C12 myotubes; type: cell-based; conditions: 100 nM of each lipid mediator vs vehicle
Method: C2C12 myoblasts were maintained in DMEM containing 10% FBS. Differentiation to myotubes was initiated by addition of DMEM containing 2% horse serum. The experiment was conducted 5 days after the addition of the differentiation media. Immediately prior to the commencement of experiments fresh media was added to the cells. Then vehicle or PDX (10, 100, and 1000 nM) was added to the appropriate wells. 30 and 120 minutes after the addition of PDX media was collected and frozen for IL-6 quantification and cells were washed in ice cold PBS. For extraction of mRNA cells were then lysed and scraped in 300 μl of RLT buffer (QIAGEN). For examination of AMPK activity cells were lysed and scraped in 200 μl of ice cold lysis buffer containing 50 mM HEPES pH7.5, 150 mM NaCl, 1 mM EGTA, 20 mM b-glycerophosphate, 1% NP40, 10 mM NaF, 2 mM Na3VO4, 1× protease inhibitor cocktail (Sigma).
Snap frozen gastrocnemius muscle and liver from mice were pulverized in liquid nitrogen then lysed overnight at 4° C. in the lysis buffer described for the C2C12 myotube experiments. Immunoblotting of myotube, macrophage, liver and muscle lysates was then performed as previously described^5. Briefly, 50 ug of protein was loaded onto a 7.5% acrylamide gel, subjected to SDS-PAGE then transferred onto nitrocellulose membranes. Membranes were then blocked and probed with the appropriate antibodies. Antibodies for p-Akt ser473, p-JNK thr183/tyr185, JNK, p-AMPK thr172, AMPK, p-STAT-3 ser727 and STAT-3 were obtained from Cell Signaling Technology (MA, USA). Antibodies for total Akt and iNOS were from Santa Cruz Biotechnology (CA, USA) and BD Transduction Laboratories™ (Canada) respectively.
RNA was extracted from C2C12 myotubes using an RNeasy® mini kit from QIAGEN. RNA from homogenized liver tissue was extracted using an RNeasy® fibrous tissue mini kit from QIAGEN. RNA was then reverse transcribed to cDNA using the high-capacity cDNA reverse transcription kit from applied biosystems. Real-time PCR for Ppargc1, Pck1, G6Pc, and GAPDH was then performed using Taqman assay on demand probes and primers from Applied Biosystems in a CFX96 real-time system from BIO-RAD. The relative expression of genes of interest was then determined by normalization to the housekeeping gene GAPDH using the comparative CT method for relative gene expression^30.
Chemokines and cytokines were quantified in macrophage media, or mouse plasma using the MILLIPLEX™ MAP mouse cytokine/chemokine kit (Millipore Corporation, MA, USA). Nitrite accumulation in media was determined by Greiss assay as previously described^25. Plasma insulin levels were assessed by RIA (Linco, MI, USA). FFA were measured using an enzymatic colorimetric assay (Wako Chemicals, VA, USA). Skeletal muscle and liver IL-6 were quantified using the mouse IL-6 ELISA kit from R&D systems. Total plasma adiponectin was determined using the ELISA from ALPCO.

T37i brown adipocytes = test: IL-6 release from cultured brown adipocytes; type: cell-based; conditions: norepinephrine 1 μM as adrenergic stimulus
Description: Since brown adipose tissue was recently shown to regulate glucose homeostasis via secretion of IL-6^20 we also examined whether PDX might raise circulating IL-6 by stimulating brown fat.

## CCCCCC(O)/C=C/C=C\C=C\[C@@H](O)C/C=C\CCCC(=O)O (stereo partly drawn) [8(S),17(S)DiHETE, 8S,15S-dihydroxy-5Z,9E,11Z,13E-eicosatetraenoic acid, reference compound]
C2C12 myotubes
  IL-6 release from muscle cells: not present

## CC/C=C\C[C@H](O)\C=C/C=C/C=C/[C@H](O)C/C=C\C/C=C\CCC(=O)O [PD1, 10R,17S-dihydroxy-docosa-4Z,7Z,11E,13E,15Z,19Z-hexaenoic acid, reference compound]
C2C12 myotubes
  IL-6 release from muscle cells: not present

## CC/C=C\CC(O)/C=C/C=C\C=C\C=C\C(O)[C@@H](O)C/C=C\CCC(=O)O (stereo partly drawn) [RvD1, 7S,8R,17S-trihydroxy-4Z,9E,11E,13Z,15E,19Z-docosahexaenoic acid, reference compound]
C2C12 myotubes
  IL-6 release from muscle cells: not present

## NC[C@H](O)c1ccc(O)c(O)c1 [norepinephrine, reference compound]
T37i brown adipocytes
  release of IL-6: released IL-6
